Read-outs that look alike come from different tables or passages of the source.
Key:
[1] = target: T1, HCV NS5B (Hepatitis C virus genotype 1b, UniProt Q9WMX2); assay: HCV NS5B RdRp enzyme assay; assay type: biochemical; conditions: HCV NS5B RdRp genotype 1b
T1 construct: The protein was expressed with an 18 amino acid C-terminal truncation to enhance the solubility; made in house; host or cells: E. coli BL21(DE3)
Description: HCV NS5B RdRp cloning, expression, and purification. The cDNA encoding the NS5B protein of HCV, genotype 1b, was cloned into the pET21a expression vector. The protein was expressed with an 18 amino acid C-terminal truncation to enhance the solubility. The E. coli competent cell line BL21(DE3) was used for expression of the protein. Cultures were grown at 37° C. for ˜4 hours until the cultures reached an optical density of 2.0 at 600 nm. The cultures were cooled to 20° C. and induced with 1 mM IPTG. Fresh ampicillin was added to a final concentration of 50 μg/ml and the cells were grown overnight at 20° C.
Cell pellets (3L) were lysed for purification to yield 15-24 mgs of purified NS5B. The lysis buffer consisted of 20 mM Tris-HCl, pH 7.4, 500 mM NaCl, 0.5% triton X-100, 1 mM DTT, 1 mM EDTA, 20% glycerol, 0.5 mg/ml lysozyme, 10 mM MgCl2, 15 ug/ml deoxyribonuclease I, and Complete TM protease inhibitor tablets (Roche). After addition of the lysis buffer, frozen cell pellets were resuspended using a tissue homogenizer. To reduce the viscosity of the sample, aliquots of the lysate were sonicated on ice using a microtip attached to a Branson sonicator. The sonicated lysate was centrifuged at 100,000×g for 1 hr at 4° C. and filtered through a 0.2 μm filter unit (Corning).
The protein was purified using three sequential chromatography steps: Heparin sepharose CL-6B, polyU sepharose 4B, and Hitrap SP sepharose (Pharmacia). The chromatography buffers were identical to the lysis buffer but contained no lysozyme, deoxyribonuclease I, MgCl2 or protease inhibitor and the NaCl concentration of the buffer was adjusted according to the requirements for charging the protein onto the column. Each column was eluted with a NaCl gradient which varied in length from 5-50 column volumes depending on the column type. After the final chromatography step, the resulting purity of the enzyme is >90% based on SDS-PAGE analysis. The enzyme was aliquoted and stored at −80° C.
Standard HCV NS5B RdRp enzyme assay. HCV RdRp genotype 1b assays were run in a final volume of 60 μl in 96 well plates (Costar 3912). The assay buffer is composed of 20 mM Hepes, pH 7.5, 2.5 mM KCl, 2.5 mM MgCl2, 1 mM DTT, 1.6 U RNAse inhibitor (Promega N2515), 0.1 mg/ml BSA (Promega R3961), and 2% glycerol. All compounds were serially diluted (3-fold) in DMSO and diluted further in water such that the final concentration of DMSO in the assay was 2%. HCV RdRp genotype 1b enzyme was used at a final concentration of 28 nM. A polyA template was used at 6 nM, and a biotinylated oligo-dT12 primer was used at 180 nM final concentration. Template was obtained commercially (Amersham 27-4110). Biotinylated primer was prepared by Sigma Genosys. 3H-UTP was used at 0.6 μCi (0.29 μM total UTP). Reactions were initiated by the addition of enzyme, incubated at 30° C. for 60 min, and stopped by adding 25 μl of 50 mM EDTA containing SPA beads (4 μg/μl, Amersham RPNQ 0007). Plates were read on a Packard Top Count NXT after >1 hr incubation at room temperature.
Modified HCV NS5B RdRp enzyme assay. A modified enzyme assay was performed essentially as described for the standard enzyme assay except for the following: The biotinylated oligo dT12 primer was precaptured on streptavidin-coated SPA beads by mixing primer and beads in assay buffer and incubating at room temperature for one hour. Unbound primer was removed after centrifugation. The primer-bound beads were resuspended in 20 mM Hepes buffer, pH 7.5 and used in the assay at final concentrations of 20 nM primer and 0.67 μg/μl beads. Order of addition in the assay: enzyme (14 nM) was added to diluted compound followed by the addition of a mixture of template (0.2 nM), 3H-UTP (0.6 μCi, 0.29 μM), and primer-bound beads, to initiate the reaction; concentrations given are final. Reactions were allowed to proceed for 4 hours at 30° C.
IC50 values for compounds were determined using seven different [I]. […]

[2] = system: HCV replicon; assay: HCV replicon FRET / luciferase assay (NeoLuc); assay type: cell-based, HCV genotype 1b; conditions: Hepatitis C virus, HCV replicon cells
From the text: FRET Assay Preparation. To perform the HCV FRET screening assay, 96-well cell culture plates were used. The FRET peptide (Anaspec, Inc.) (Taliani et al., Anal. Biochem. 1996, 240, 60-67) contains a fluorescence donor, EDANS, near one end of the peptide and an acceptor, DABCYL, near the other end. The fluorescence of the peptide is quenched by […] resonance energy transfer (RET) between the donor and the acceptor, but as the NS3 protease cleaves the peptide the products are released from RET quenching and the fluorescence of the donor becomes apparent. The assay reagent was made as follows: 5× cell Luciferase cell culture lysis reagent from Promega (#E153A) diluted to 1× with dH2O, NaCl added to 150 mM final, the FRET peptide diluted to 20 μM final from a 2 mM stock.
To prepare plates, HCV replicon cells, with or without a Renilla luciferase reporter gene, were trypsinized and placed into each well of a 96-well plate with titrated test compounds added in columns 3 through 12; columns 1 and 2 contained a control compound (HCV protease inhibitor), and the bottom row contained cells without compound. The plates were then placed in a CO2 incubator at 37° C.
Assays. Subsequent to addition of the test compounds described above (FRET Assay Preparation), at various times the plate was removed and Alamar blue solution (Trek Diagnostics, #00-100) was added per well as a measure of cellular toxicity. After reading in a Cytoflour 4000 instrument (PE Biosystems), plates were rinsed with PBS and then used for FRET assay by the addition of 30 ul of the FRET peptide assay reagent described above (FRET Assay Preparation) per well. The plate was then placed into the Cytoflour 4000 instrument which had been set to 340 excite/490 emission, automatic mode for 20 cycles and the plate read in a kinetic mode. Typically, the signal to noise using an endpoint analysis after the reads was at least three-fold. Alternatively, after Alamar blue reading, plates were rinsed with PBS, 50 ul of DMEM (high glucose) without phenol red was added and plates were then used for luciferase assay using the Promega Dual-Glo Luciferase Assay System,
Compound analysis was deteiniined by quantification of the relative HCV replicon inhibition and the relative cytotoxicity values. To calculate cytoxicity values, the average Alamar Blue fluorescence signals from the control wells were set as 100% non-toxic. The individual signals in each of the compound test wells were then divided by the average control signal and multiplied by 100% to determine […]. To calculate the HCV replicon inhibition values, an average background value was obtained from the two wells containing the highest amount of HCV protease inhibitor at the end of the assay period. These numbers were similar to those obtained from naïve Huh-7 cells.
The background numbers were then subtracted from the average signal obtained from the control wells and this number was used as 100% activity. The individual signals in each of the compound test wells were then divided by the averaged control values after background subtraction and multiplied by 100% to determine percent activity. EC50 values for a protease inhibitor titration were calculated as the concentration which caused a 50% reduction in FRET or luciferase activity. The two numbers generated for the compound plate, percent cytoxicity and percent activity were used to determine compounds of interest for further analysis.

[3] = genotype 1b, read-out: NeoLuc EC50, Table 1, genotype 1b

T1 sequence (Q9WMX2 2420-2992): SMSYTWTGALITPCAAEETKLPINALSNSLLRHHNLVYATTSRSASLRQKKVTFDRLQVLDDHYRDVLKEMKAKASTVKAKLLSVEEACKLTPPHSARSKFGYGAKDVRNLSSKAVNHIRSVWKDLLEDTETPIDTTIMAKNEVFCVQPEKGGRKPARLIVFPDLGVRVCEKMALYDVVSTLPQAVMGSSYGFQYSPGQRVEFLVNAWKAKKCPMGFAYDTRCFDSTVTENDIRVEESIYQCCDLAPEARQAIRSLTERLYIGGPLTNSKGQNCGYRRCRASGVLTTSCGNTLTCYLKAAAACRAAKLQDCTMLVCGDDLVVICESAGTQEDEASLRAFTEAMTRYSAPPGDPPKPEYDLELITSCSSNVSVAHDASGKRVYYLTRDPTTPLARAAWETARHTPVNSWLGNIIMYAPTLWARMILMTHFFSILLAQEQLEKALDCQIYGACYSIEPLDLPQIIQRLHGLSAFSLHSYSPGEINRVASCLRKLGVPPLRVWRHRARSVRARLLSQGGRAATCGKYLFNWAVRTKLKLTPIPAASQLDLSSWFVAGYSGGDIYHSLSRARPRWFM

Structure (SMILES) | IC50 ([1]; Table 1) [nM] | EC50 [2, 3] [nM] | IC50 ([1]; Table 2) [nM] | EC50 ([2]; Table 2, read-out: NeoLuc EC50) [nM]
C=C(C)S(=O)(=O)NC(=O)c1ccc2c(C3CCCCC3)c3n(c2c1)C[C@@]1(C(=O)N2CC45CNCC4(COC5)C2)C[C@H]1c1cc(OC)ccc1-3 (stereo partly shown) | < 2.3 | 1.9 to 500 | – | –
CNC(=O)N1CC23COCC2(C1)CN(C(=O)[C@]12C[C@H]1c1cc(OC)ccc1-c1c(C4CCCCC4)c4ccc(C(=O)NS(=O)(=O)C(C)C)cc4n1C2)C3 (stereo partly shown) | 1.9 to 500 | 1.9 to 500 | – | –
C=C(C)S(=O)(=O)NC(=O)c1ccc2c(C3CCCCC3)c3n(c2c1)C[C@@]1(C(=O)N2C[C@]4(COC)CN(C)C[C@]4(COC)C2)C[C@H]1c1cc(OC)ccc1-3 | < 20 | 1.9 to 500 | – | –
COc1ccc2c(c1)C1CC1(C(=O)N1CC34COCC3(CN(C)C4)C1)Cn1c-2c(C2CCCCC2)c2ccc(C(=O)NS(=O)(=O)CC(C)C)cc21 (stereo not shown) | 1.9 to 500 | 1.9 to 500 | – | –
C=C(/C=C1\C(=C)c2c(C3CCCCC3)c3ccc(C(=O)NS(=O)(=O)C(C)C)cc3n2CC2(C(=O)N3CC45CNCC4(CNC5)C3)CC12)OC (stereo not shown) | < 2.3 | > 1000 | – | –
C=C(C)S(=O)(=O)NC(=O)c1ccc2c(C3CCCCC3)c3n(c2c1)C[C@@]1(C(=O)N2C[C@@]4(COC)CNC[C@@]4(COC)C2)C[C@H]1c1cc(OC)ccc1-3 | < 20 | 500 to 1000 | – | –
COC[C@@]12CN(C)C[C@]1(COC)CN(C(=O)C13CC1c1cc(OC)ccc1-c1c(C4CCCCC4)c4ccc(C(=O)NS(=O)(=O)C(C)C)cc4n1C3)C2 (stereo partly shown) | 1.9 to 500 | 1.9 to 500 | – | –
COC(=O)N1CC23COCC2(C1)CN(C(=O)[C@]12C[C@H]1c1cc(OC)ccc1-c1c(C4CCCCC4)c4ccc(C(=O)NS(=O)(=O)C(C)C)cc4n1C2)C3 (stereo partly shown) | 1.9 to 500 | – | – | –
CCOCCN1CC23COCC2(C1)CN(C(=O)[C@]12C[C@H]1c1cc(OC)ccc1-c1c(C4CCCCC4)c4ccc(C(=O)NS(=O)(=O)C(C)C)cc4n1C2)C3 (stereo partly shown) [drawing 101] | 1.9 to 500 | 1.9 to 500 | – | –
COC[C@]12CNC[C@@]1(COC)CN(C(=O)C13CC1c1cc(OC)ccc1-c1c(C4CCCCC4)c4ccc(C(=O)NS(=O)(=O)C(C)C)cc4n1C3)C2 (stereo partly shown) | – | 1.9 to 500 | – | –
COc1ccc2c(c1)[C@@H]1C[C@]1(C(=O)N1CC34CCC3(C1)CN(C1CC1)C4)Cn1c-2c(C2CCCCC2)c2ccc(C(=O)NS(=O)(=O)C(C)C)cc21 (stereo partly shown) | 1.9 to 500 | 1.9 to 500 | – | –
COc1ccc2c(c1)C1CC1(C(=O)N1CC34CNCC3(COC4)C1)Cn1c-2c(C2CCCCC2)c2ccc(C(=O)NS(=O)(=O)C(C)C)cc21 (stereo not shown) | 1.9 to 500 | 1.9 to 500 | – | –
CNC(=O)N1CC23COCC2(C1)CN(C(=O)[C@]12C[C@H]1c1cc(OC)ccc1-c1c(C4CCCCC4)c4ccc(C(=O)NS(=O)(=O)N(C)C)cc4n1C2)C3 (stereo partly shown) | 1.9 to 500 | 1.9 to 500 | – | –
COc1ccc2c(c1)C1CC1(C(=O)N1CC34CN(C)CC3(CN(C)C4)C1)Cn1c-2c(C2CCCCC2)c2ccc(C(=O)NS(=O)(=O)C(C)C)cc21 (stereo not shown) | < 2.3 | 1.9 to 500 | – | –
COc1ccc2c(c1)[C@@H]1C[C@]1(C(=O)N1CC34COCC3(C1)CN(C1CC1)C4)Cn1c-2c(C2CCCCC2)c2ccc(C(=O)NS(=O)(=O)N(C)C)cc21 (stereo partly shown) | 1.9 to 500 | 1.9 to 500 | – | –
COc1ccc2c(c1)C1CC1(C(=O)N1CC34COCC3(CN(C)C4)C1)Cn1c-2c(C2CCCCC2)c2ccc(C(=O)NS(=O)(=O)C(C)C)cc21 (stereo not shown) | < 2.3 | 1.9 to 500 | – | –
COc1ccc2c(c1)C1CC1(C(=O)N1CC34CNCC3(COC4)C1)Cn1c-2c(C2CCCCC2)c2ccc(C(=O)NS(=O)(=O)CC(C)C)cc21 (stereo not shown) | 1.9 to 500 | 1.9 to 500 | – | –
CCN1CC23COCC2(C1)CN(C(=O)C12CC1c1cc(OC)ccc1-c1c(C4CCCCC4)c4ccc(C(=O)NS(=O)(=O)C(C)C)cc4n1C2)C3 (stereo not shown) | 1.9 to 500 | 1.9 to 500 | – | –
CCOCCN1CC23COCC2(C1)CN(C(=O)[C@]12C[C@H]1c1cc(OC)ccc1-c1c(C4CCCCC4)c4ccc(C(=O)NS(=O)(=O)C(C)C)cc4n1C2)C3 (stereo partly shown) [drawing 112] | – | – | 1.9 | 7.69
COC(=O)N1CC23COCC2(C1)CN(C(=O)[C@]12C[C@H]1c1cc(OC)ccc1-c1c(C4CCCCC4)c4ccc(C(=O)NS(=O)(=O)N(C)C)cc4n1C2)C3 (stereo partly shown) | > 1000 | – | – | –
